Test results taken from PubChem BioAssay (NCI).
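In this assay, cells in 96-well plates receive the compound at five concentrations for 48 hours. Endpoints are linearly interpolated between the surrounding concentrations. TGI: concentration producing complete growth inhibition.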

Columns and labels:
Assay in all cases: DTP human tumour cell line panel, 48 h
786-0 renal = test system: 786-0 renal
A498 renal = test system: A498 renal
A549 NSCLC = test system: A549 NSCLC
ACHN renal = test system: ACHN renal
BT-549 breast = test system: BT-549 breast
CAKI-1 renal = test system: CAKI-1 renal
CCRF-CEM leukemia = test system: CCRF-CEM leukemia
COLO 205 colon = test system: COLO 205 colon
EKVX NSCLC = test system: EKVX NSCLC
HCT-116 colon = test system: HCT-116 colon
HCT-15 colon = test system: HCT-15 colon
HL-60(TB) leukemia = test system: HL-60(TB) leukemia
HOP-62 NSCLC = test system: HOP-62 NSCLC
HOP-92 NSCLC = test system: HOP-92 NSCLC
HS 578T breast = test system: HS 578T breast
HT29 colon = test system: HT29 colon
IGROV1 ovarian = test system: IGROV1 ovarian
K-562 leukemia = test system: K-562 leukemia
KM12 colon = test system: KM12 colon
LOX IMVI melanoma = test system: LOX IMVI melanoma
M14 melanoma = test system: M14 melanoma
MALME-3M melanoma = test system: MALME-3M melanoma
MCF7 breast = test system: MCF7 breast
MDA-MB-231 breast = test system: MDA-MB-231 breast
MDA-MB-435 = test system: MDA-MB-435
MDA-N = test system: MDA-N
MOLT-4 leukemia = test system: MOLT-4 leukemia
NCI-H226 lung = test system: NCI-H226 lung
NCI-H23 lung = test system: NCI-H23 lung
NCI-H460 lung = test system: NCI-H460 lung
NCI-H522 lung = test system: NCI-H522 lung
NCI/ADR-RES ovarian = test system: NCI/ADR-RES ovarian
OVCAR-3 ovarian = test system: OVCAR-3 ovarian
OVCAR-4 ovarian = test system: OVCAR-4 ovarian
OVCAR-5 ovarian = test system: OVCAR-5 ovarian
OVCAR-8 ovarian = test system: OVCAR-8 ovarian
PC-3 prostate = test system: PC-3 prostate
RPMI-8226 leukemia = test system: RPMI-8226 leukemia
RXF 393 renal = test system: RXF 393 renal
SF-268 CNS = test system: SF-268 CNS
SF-295 CNS = test system: SF-295 CNS
SF-539 CNS = test system: SF-539 CNS
SK-MEL-2 melanoma = test system: SK-MEL-2 melanoma
SK-MEL-28 melanoma = test system: SK-MEL-28 melanoma
SK-MEL-5 melanoma = test system: SK-MEL-5 melanoma
SK-OV-3 ovarian = test system: SK-OV-3 ovarian
SNB-19 CNS = test system: SNB-19 CNS
SNB-75 CNS = test system: SNB-75 CNS
SR leukemia = test system: SR leukemia
SW-620 colon = test system: SW-620 colon
T-47D breast = test system: T-47D breast
TK-10 renal = test system: TK-10 renal
U251 CNS = test system: U251 CNS
UACC-257 melanoma = test system: UACC-257 melanoma
UACC-62 melanoma = test system: UACC-62 melanoma
UO-31 renal = test system: UO-31 renal
DU-145 prostate = test system: DU-145 prostate
HCC-2998 colon = test system: HCC-2998 colon
SN12C renal = test system: SN12C renal

## COC(=O)[C@H](C)N(C)C(=O)[C@H](C)N1[C@@H](c2ccccc2)COC1(C)C
786-0 renal
  TGI: > 100 µM
A498 renal
  TGI: > 100 µM
A549 NSCLC
  TGI: > 100 µM
ACHN renal
  TGI: > 100 µM
BT-549 breast
  TGI: > 100 µM
CAKI-1 renal
  TGI: > 100 µM
CCRF-CEM leukemia
  TGI: > 100 µM
COLO 205 colon
  TGI: > 100 µM
EKVX NSCLC
  TGI: > 100 µM
HCT-116 colon
  TGI: > 100 µM
HCT-15 colon
  TGI: > 100 µM
HL-60(TB) leukemia
  TGI: > 100 µM
HOP-62 NSCLC
  TGI: > 100 µM
HOP-92 NSCLC
  TGI: > 100 µM
HS 578T breast
  TGI: > 100 µM
HT29 colon
  TGI: > 100 µM
IGROV1 ovarian
  TGI: > 100 µM
K-562 leukemia
  TGI: > 100 µM
KM12 colon
  TGI: > 100 µM
LOX IMVI melanoma
  TGI: > 100 µM
M14 melanoma
  TGI: > 100 µM
MALME-3M melanoma
  TGI: > 100 µM
MCF7 breast
  TGI: > 100 µM
MDA-MB-231 breast
  TGI: > 100 µM
MDA-MB-435
  TGI: > 100 µM
MDA-N
  TGI: > 100 µM
MOLT-4 leukemia
  TGI: > 100 µM
NCI-H226 lung
  TGI: > 100 µM
NCI-H23 lung
  TGI: > 100 µM
NCI-H460 lung
  TGI: > 100 µM
NCI-H522 lung
  TGI: > 100 µM
NCI/ADR-RES ovarian
  TGI: > 100 µM
OVCAR-3 ovarian
  TGI: > 100 µM
OVCAR-4 ovarian
  TGI: > 100 µM
OVCAR-5 ovarian
  TGI: > 100 µM
OVCAR-8 ovarian
  TGI: > 100 µM
PC-3 prostate
  TGI: > 100 µM
RPMI-8226 leukemia
  TGI: > 100 µM
RXF 393 renal
  TGI: > 100 µM
SF-268 CNS
  TGI: > 100 µM
SF-295 CNS
  TGI: > 100 µM
SF-539 CNS
  TGI: > 100 µM
SK-MEL-2 melanoma
  TGI: > 100 µM
SK-MEL-28 melanoma
  TGI: > 100 µM
SK-MEL-5 melanoma
  TGI: > 100 µM
SK-OV-3 ovarian
  TGI: > 100 µM
SNB-19 CNS
  TGI: > 100 µM
SNB-75 CNS
  TGI: > 100 µM
SR leukemia
  TGI: > 100 µM
SW-620 colon
  TGI: > 100 µM
T-47D breast
  TGI: > 100 µM
TK-10 renal
  TGI: > 100 µM
U251 CNS
  TGI: > 100 µM
UACC-257 melanoma
  TGI: > 100 µM
UACC-62 melanoma
  TGI: > 100 µM
UO-31 renal
  TGI: > 100 µM

## CC(C)(C)NC(=S)N/N=C/c1ccccn1
786-0 renal
  TGI: > 100 µM
A498 renal
  TGI: > 79.1 µM
A549 NSCLC
  TGI: > 100 µM
ACHN renal
  TGI: 27 µM
BT-549 breast
  TGI: > 100 µM
CAKI-1 renal
  TGI: > 100 µM
COLO 205 colon
  TGI: > 100 µM
DU-145 prostate
  TGI: > 100 µM
EKVX NSCLC
  TGI: > 100 µM
HCC-2998 colon
  TGI: > 100 µM
HCT-116 colon
  TGI: 1.02 µM
HCT-15 colon
  TGI: > 100 µM
HOP-62 NSCLC
  TGI: > 79.8 µM
HOP-92 NSCLC
  TGI: 89.3 µM
HS 578T breast
  TGI: > 100 µM
HT29 colon
  TGI: > 100 µM
IGROV1 ovarian
  TGI: > 100 µM
KM12 colon
  TGI: > 100 µM
LOX IMVI melanoma
  TGI: > 76.7 µM
M14 melanoma
  TGI: > 41.9 µM
MALME-3M melanoma
  TGI: > 100 µM
MDA-MB-231 breast
  TGI: > 100 µM
MDA-MB-435
  TGI: > 100 µM
MDA-N
  TGI: > 100 µM
NCI-H226 lung
  TGI: > 25.9 µM
NCI-H23 lung
  TGI: > 100 µM
NCI-H460 lung
  TGI: > 100 µM
NCI-H522 lung
  TGI: > 86.9 µM
NCI/ADR-RES ovarian
  TGI: > 100 µM
OVCAR-3 ovarian
  TGI: > 100 µM
OVCAR-4 ovarian
  TGI: > 100 µM
OVCAR-5 ovarian
  TGI: > 100 µM
OVCAR-8 ovarian
  TGI: > 40.7 µM
PC-3 prostate
  TGI: > 100 µM
RPMI-8226 leukemia
  TGI: 3.83 µM
RXF 393 renal
  TGI: > 100 µM
SF-268 CNS
  TGI: > 100 µM
SF-295 CNS
  TGI: > 100 µM
SF-539 CNS
  TGI: 27.6 µM
SK-MEL-2 melanoma
  TGI: > 100 µM
SK-MEL-28 melanoma
  TGI: > 100 µM
SK-MEL-5 melanoma
  TGI: > 46.4 µM
SK-OV-3 ovarian
  TGI: > 100 µM
SN12C renal
  TGI: > 96.1 µM
SNB-19 CNS
  TGI: > 100 µM
SNB-75 CNS
  TGI: > 100 µM
SW-620 colon
  TGI: > 100 µM
T-47D breast
  TGI: > 100 µM
TK-10 renal
  TGI: > 100 µM
U251 CNS
  TGI: > 100 µM
UACC-62 melanoma
  TGI: 37.3 µM
UO-31 renal
  TGI: > 47.8 µM

## COc1cc(/C=N/n2c(C)n[nH]c2=O)cc(OC)c1OC
786-0 renal
  TGI: > 100 µM
A498 renal
  TGI: > 100 µM
A549 NSCLC
  TGI: > 100 µM
ACHN renal
  TGI: > 100 µM
BT-549 breast
  TGI: > 100 µM
CAKI-1 renal
  TGI: > 100 µM
CCRF-CEM leukemia
  TGI: > 100 µM
COLO 205 colon
  TGI: > 100 µM
EKVX NSCLC
  TGI: > 100 µM
HCC-2998 colon
  TGI: > 100 µM
HCT-116 colon
  TGI: > 100 µM
HCT-15 colon
  TGI: > 100 µM
HOP-62 NSCLC
  TGI: > 100 µM
HS 578T breast
  TGI: 49.7 µM
HT29 colon
  TGI: > 100 µM
K-562 leukemia
  TGI: > 100 µM
KM12 colon
  TGI: > 100 µM
M14 melanoma
  TGI: > 100 µM
MALME-3M melanoma
  TGI: > 100 µM
MCF7 breast
  TGI: > 100 µM
MDA-MB-231 breast
  TGI: > 100 µM
MDA-MB-435
  TGI: > 100 µM
MDA-N
  TGI: > 100 µM
MOLT-4 leukemia
  TGI: > 100 µM
NCI-H226 lung
  TGI: > 100 µM
NCI-H23 lung
  TGI: > 100 µM
NCI-H460 lung
  TGI: > 100 µM
NCI/ADR-RES ovarian
  TGI: > 100 µM
OVCAR-3 ovarian
  TGI: > 100 µM
OVCAR-4 ovarian
  TGI: > 100 µM
OVCAR-5 ovarian
  TGI: > 100 µM
OVCAR-8 ovarian
  TGI: > 100 µM
PC-3 prostate
  TGI: > 100 µM
RXF 393 renal
  TGI: > 100 µM
SF-268 CNS
  TGI: > 100 µM
SF-295 CNS
  TGI: > 100 µM
SF-539 CNS
  TGI: > 100 µM
SK-MEL-2 melanoma
  TGI: > 100 µM
SK-MEL-28 melanoma
  TGI: > 100 µM
SK-OV-3 ovarian
  TGI: > 100 µM
SN12C renal
  TGI: > 100 µM
SNB-19 CNS
  TGI: > 100 µM
SNB-75 CNS
  TGI: > 100 µM
SW-620 colon
  TGI: > 100 µM
T-47D breast
  TGI: > 100 µM
U251 CNS
  TGI: > 100 µM
UACC-257 melanoma
  TGI: > 100 µM
UACC-62 melanoma
  TGI: > 100 µM
UO-31 renal
  TGI: > 100 µM

## CC(=O)c1cccc(Nc2nc3ccccc3c3[nH]c4ccccc4c23)c1
786-0 renal
  TGI: 11.7 µM
A549 NSCLC
  TGI: 15.3 µM
ACHN renal
  TGI: 40.5 µM
BT-549 breast
  TGI: > 100 µM
CAKI-1 renal
  TGI: 23.4 µM
CCRF-CEM leukemia
  TGI: > 100 µM
COLO 205 colon
  TGI: 5.81 µM
DU-145 prostate
  TGI: > 100 µM
EKVX NSCLC
  TGI: 21.4 µM
HCT-116 colon
  TGI: > 100 µM
HCT-15 colon
  TGI: > 100 µM
HOP-62 NSCLC
  TGI: 42 µM
HOP-92 NSCLC
  TGI: 22.2 µM
HS 578T breast
  TGI: > 100 µM
HT29 colon
  TGI: 17 µM
IGROV1 ovarian
  TGI: 22.3 µM
K-562 leukemia
  TGI: > 100 µM
KM12 colon
  TGI: > 100 µM
M14 melanoma
  TGI: > 100 µM
MALME-3M melanoma
  TGI: 13.2 µM
MCF7 breast
  TGI: 4.22 µM
MDA-MB-231 breast
  TGI: 51.6 µM
MDA-MB-435
  TGI: 71.1 µM
MDA-N
  TGI: > 100 µM
NCI-H23 lung
  TGI: > 100 µM
NCI-H460 lung
  TGI: 4.36 µM
NCI-H522 lung
  TGI: 8.11 µM
NCI/ADR-RES ovarian
  TGI: > 100 µM
OVCAR-3 ovarian
  TGI: 6.56 µM
OVCAR-5 ovarian
  TGI: 96.3 µM
OVCAR-8 ovarian
  TGI: 74.9 µM
PC-3 prostate
  TGI: 40.9 µM
RPMI-8226 leukemia
  TGI: 9.25 µM
SF-268 CNS
  TGI: 17.3 µM
SF-295 CNS
  TGI: 15.9 µM
SF-539 CNS
  TGI: 18 µM
SK-MEL-2 melanoma
  TGI: 24.2 µM
SK-OV-3 ovarian
  TGI: 43.7 µM
SN12C renal
  TGI: > 100 µM
SNB-19 CNS
  TGI: > 100 µM
SW-620 colon
  TGI: > 100 µM
T-47D breast
  TGI: 33.5 µM
TK-10 renal
  TGI: 37 µM
U251 CNS
  TGI: 16.4 µM
UACC-257 melanoma
  TGI: > 100 µM
UACC-62 melanoma
  TGI: 5.71 µM
UO-31 renal
  TGI: > 100 µM
